Measured values published in US10800741B2 (ANCUREALL PHARMACEUTICAL (SHANGHAI) CO., LTD., priority 2017, dated 2020).

Key:
[1] = tested on: RS4:11; experiment: In vitro growth inhibition of FLT3 wild type overexpressing cells RS4:11; type: cell-based; details: Homo sapiens, cells over expressing FLT3 wild-type
Procedure: (§1) Adherent cells were digested with 0.25% trypsin-EDTA (Gibco). Suspension culture cells were collected by centrifugation (1700 rpm, 3 minutes). The supernatant was discarded and the cells were counted. According to each cell growth cycle, different concentrations of cells were prepared (5˜10×10^4 cells per ml), and inoculated to 96-well plates (Corning), with 100 μl per well, and incubated overnight at 37° C., 5% CO2. The next day, the test compound was added to the cultured cells (2 wells in parallel). The final concentration of the solvent was less than 1/1,000. The cells were further cultured for 3 to 5 days and assayed by MTT.
(§2) The MTT test reagent was a Dojindo CCK8 kit and the Microplate Reader was a THERMO […] FC instrument.
(§3) The adherent cells were taken out from the cell culture medium, and immediately added to a freshly prepared complete medium containing 10% CCK8 (5% FBS), 100 ul per hole. The suspended cells were directly added to a CCK8 reagent until reaching a final concentration of 10% and cultured for 1 to 4 hours. When a dark yellow color could be observed in the solvent control wells, the absorbance value at OD450 nm was measured and the cell growth rate was calculated according to the following formula: Cell Growth Rate (%)=100×(T−T0)/(C−T0)
(§4) T=optical density of drug-treated cell wells−optical density of blank control wells; T0=optical density of cell wells before drug treatment−optical density of blank control wells; C=optical density of solvent control wells−optical density of blank control wells. […] The experiments were repeated 1 to 3 times and a statistical analysis of data was conducted.
(§5) The present compounds which has a high growth inhibition activity on tumor cells positive expressing FLT3-ITD were selected for the determination of IC50 concentration on FLT3 wild tyoverexpressing cells RS4:11 and FLT3 wild-type normal expressing cells Jurkat. The specific test method is the same as that of test example 1.

[2] = tested on: H1703 (PDGFRa amp); experiment: In vitro growth inhibition of H1703 tumor cells (MTT/CCK8); type: cell-based, Human; details: Homo sapiens, NCI-H1703; in vitro growth inhibition (or induction of apoptosis), cells cultured 3 to 5 days, MTT (CCK8); read-out: IC50 H1703 (PDGFRa amp)
[3] = tested on: MOLM-13 (FLT3-ITD); experiment: In vitro growth inhibition of MOLM-13 tumor cells (MTT/CCK8); type: cell-based, Human; details: Homo sapiens, MOLM-13; in vitro growth inhibition (or induction of apoptosis), cells cultured 3 to 5 days, MTT (CCK8); read-out: IC50 MOLM-13 (FLT3-ITD)
[4] = tested on: KCL-22 (BCR-ABL); experiment: In vitro growth inhibition of KCL-22 tumor cells (MTT/CCK8); type: cell-based, Human; details: Homo sapiens, KCL-22; in vitro growth inhibition (or induction of apoptosis), cells cultured 3 to 5 days, MTT (CCK8); read-out: IC50 KCL-22 (BCR-ABL)
[5] = tested on: Kasumi-1 (KIT N822K); experiment: In vitro growth inhibition of Kasumi-1 tumor cells (MTT/CCK8); type: cell-based, Human; details: Homo sapiens, Kasumi 1; in vitro growth inhibition (or induction of apoptosis), cells cultured 3 to 5 days, MTT (CCK8); read-out: IC50 Kasumi-1 (KIT N822K)
[6] = tested on: Jurkat; experiment: In vitro growth inhibition of FLT3 wild-type normal expressing cells Jurkat; type: cell-based; details: Homo sapiens, cells normally expressing FLT3 wild-type
Procedure: as §1, §2, §3, §4, §5

[7] = tested on: H1581 (FGFR1 amp); experiment: In vitro growth inhibition of H1581 tumor cells (MTT/CCK8); type: cell-based, Human; details: Homo sapiens, NCI-H1581; in vitro growth inhibition (or induction of apoptosis), cells cultured 3 to 5 days, MTT (CCK8); read-out: IC50 H1581 (FGFR1 amp)
[8] = tested on: KATO III (FGFR2 amp); experiment: In vitro growth inhibition of KATO III tumor cells (MTT/CCK8); type: cell-based, Human; details: Homo sapiens, KATO III; in vitro growth inhibition (or induction of apoptosis), cells cultured 3 to 5 days, MTT (CCK8); read-out: IC50 KATO III (FGFR2 amp)
[9] = tested on: Karpas 299 (NPM-ALK); experiment: In vitro growth inhibition of Karpas 299 tumor cells (MTT/CCK8); type: cell-based, Human; details: Homo sapiens, KARPAS-299; in vitro growth inhibition (or induction of apoptosis), cells cultured 3 to 5 days, MTT (CCK8); read-out: IC50 Karpas 299 (NPM-ALK)
[10] = tested on: Hep3B2 (FGFR3/4+++); experiment: In vitro growth inhibition of Hep3B2 tumor cells (MTT/CCK8); type: cell-based, Human; details: Homo sapiens, Hep3B; in vitro growth inhibition (or induction of apoptosis), cells cultured 3 to 5 days, MTT (CCK8); read-out: IC50 Hep3B2 (FGFR3/4+++)
[11] = tested on: human non-small cell lung cancer cell line NCI-H1299 (NRAS Q61K mutation); experiment: Growth inhibition in combination with MEK1/2 inhibitor Trametinib, NCI-H1299 (NRAS Q61K mutation); type: cell-based; details: 5 days
Procedure: (§6) Test Example 5 Synergistic Inhibition Effect of the Present Compounds in Combination with MEK1/2 Inhibitor on the Growth of RAS Mutant Tumor Cells In Vitro
(§7) The cell culture, drug treatment and MTT assay of human intestinal cancer cell line HCT116 (KRAS G13D mutation) and human non-small cell lung cancer cell line NCI-H1299 (NRAS Q61K mutation) were performed according to the method of test example 1. Cells were treated with the MEK1/2 inhibitor Trametinib at 25 nM, 2.5 nM and 0.25 nM alone or in combination with compound 66 or 125 of the present invention (5 days).

[12] = tested on: human intestinal cancer cell line HCT116 (KRAS G13D mutation); experiment: Growth inhibition in combination with MEK1/2 inhibitor Trametinib, HCT116 (KRAS G13D mutation); type: cell-based; details: 5 days
Procedure: as §6, §7

[13] = compound 7.8 nM + Trametinib 0.25 nM
[14] = compound 7.8 nM + Trametinib 2.5 nM
[15] = compound 7.8 nM + Trametinib 25 nM
[16] = compound 15.6 nM + Trametinib 0.25 nM
[17] = compound 15.6 nM + Trametinib 2.5 nM
[18] = compound 15.6 nM + Trametinib 25 nM

IC50 [1] [nM]	IC50 [2] [nM]	IC50 [3] [nM]	IC50 [4] [nM]	IC50 [5] [nM]	IC50 [7] [nM]	IC50 [8] [nM]	IC50 [9] [nM]	IC50 [10] [nM]	Structure (SMILES)	further results
188	9.45	< 0.05	64.7	90.1	16.1	1.28	394	282	COc1cc2nccc(Oc3ccc(NC(=O)Nc4cc(C(C)(C)C)on4)cc3)c2cc1C(N)=O [Compound 1, 4-{4-[3-(5-tert-butyl-isoxazol-3-yl)-ureido]-phenoxy}-7-methoxyquinolin-6-carboxamide]	IC50 [6]: 521 nM
375	19.4	< 0.05	19.8	46	55.4	6.33	187	83.9	COc1cc2nccc(Oc3ccc(NC(=O)Nc4cc(C(C)(C)C)on4)cc3Br)c2cc1C(N)=O [Compound 7, 4-{2-Bromo-4-[3-(5-tert-butyl-isoxazol-3-yl)-ureido]-phenoxy}-7-methoxyquinolin-6-carboxamide]	IC50 [6]: 302 nM
531	71.5	0.27	23.9	26.1	53.4	5.5	114	153	CNC(=O)c1cc2c(Oc3ccc(NC(=O)Nc4cc(C(C)(C)C)n[nH]4)cc3Cl)ccnc2cc1OC [Compound 54, 4-{4-[3-(5-tert-butyl-2H-pyrazol-3-yl)-ureido]-2-chloro-phenoxy}-7-methoxyquinolin-6-carboxylic acid methylamide]	–
500	71.2	< 0.05	10.2	97.5	8.39	1.32	> 1000	75.8	COc1cc2nccc(Oc3ccc(NC(=O)Nc4cc(C(C)(C)C)n[nH]4)cc3F)c2cc1NC(C)=O [Compound 102, N-(4-{4-[3-(5-tert-butyl-2H-pyrazol-3-yl)-ureido]-2-fluoro-phenoxy}-7-methoxy-quinolin-6-yl)-acetamide]	–
–	> 1000	> 1000	> 5000	> 1000	> 1000	746	> 1000	> 1000	CC(C)(C)c1cc(NC(=O)Nc2ccc(Oc3cc(C(F)(F)F)nc4ccccc34)cc2Cl)no1 [Compound 115, 1-(5-tert-butyl-isoxazol-3-yl)-3-[2-chloro-4-(2-trifluoromethyl-quinolin-4-yloxy)-phenyl]-urea]	–
–	–	1.2	–	–	1.06	0.23	–	–	COCCOc1cc2nccc(Oc3ccc(NC(=O)Nc4cc(C(C)(C)C)nn4C4CC4)c(Cl)c3)c2cc1NC(C)=O [Compound 125]	inhibition at 0.0078 µM ([11]; Homo sapiens, NCI-H1299, 120 h, compound 7.8 nM alone (solvent instead of Trametinib), read-out: cell growth inhibition (percentage)): 1.63%; inhibition at 0.0156 µM ([11]; Homo sapiens, NCI-H1299, 120 h, compound 15.6 nM alone (solvent instead of Trametinib), read-out: cell growth inhibition (percentage)): 6.5%; cell growth inhibition (percentage) [11, 13]: 9.27%; cell growth inhibition (percentage) [11, 14]: 24.38%; cell growth inhibition (percentage) [11, 15]: 46.25%; cell growth inhibition (percentage) [11, 16]: 19.92%; cell growth inhibition (percentage) [11, 17]: 34.72%; cell growth inhibition (percentage) [11, 18]: 58.26%; inhibition at 0.0078 µM ([12]; Homo sapiens, HCT-116, 120 h, compound 7.8 nM alone (solvent instead of Trametinib), read-out: cell growth inhibition (percentage)): 14.5%; inhibition at 0.0156 µM ([12]; Homo sapiens, HCT-116, 120 h, compound 15.6 nM alone (solvent instead of Trametinib), read-out: cell growth inhibition (percentage)): 19.9%; cell growth inhibition (percentage) [12, 13]: 62.54%; cell growth inhibition (percentage) [12, 14]: 76.01%; cell growth inhibition (percentage) [12, 15]: 82.04%; cell growth inhibition (percentage) [12, 16]: 71.98%; cell growth inhibition (percentage) [12, 17]: 79.72%; cell growth inhibition (percentage) [12, 18]: 82.82%
–	–	–	–	–	–	–	–	–	CC(=O)Nc1cccc(-n2c(=O)n(C3CC3)c(=O)c3c(Nc4ccc(I)cc4F)n(C)c(=O)c(C)c32)c1 [Trametinib, reference compound]	inhibition at 0.00025 µM ([11]; Homo sapiens, NCI-H1299, 120 h, Trametinib 0.25 nM alone, read-out: cell growth inhibition (percentage)): 2.2%; inhibition at 0.0025 µM ([11]; Homo sapiens, NCI-H1299, 120 h, Trametinib 2.5 nM alone, read-out: cell growth inhibition (percentage)): 6.31%; inhibition at 0.025 µM ([11]; Homo sapiens, NCI-H1299, 120 h, Trametinib 25 nM alone, read-out: cell growth inhibition (percentage)): 15.5%; inhibition at 0.00025 µM ([12]; Homo sapiens, HCT-116, 120 h, Trametinib 0.25 nM alone, read-out: cell growth inhibition (percentage)): 12.1%; inhibition at 0.0025 µM ([12]; Homo sapiens, HCT-116, 120 h, Trametinib 2.5 nM alone, read-out: cell growth inhibition (percentage)): 27.7%; inhibition at 0.025 µM ([12]; Homo sapiens, HCT-116, 120 h, Trametinib 25 nM alone, read-out: cell growth inhibition (percentage)): 75.1%
